Data: the supplement of paper PMC10307832

Tests used:
Assay in all cases: relative viability (nuclei count vs DMSO), 5 days (fraction); higher = more cells survive
R406 + Vorinostat = compound: COc1cc(Nc2ncc(F)c(Nc3ccc4c(n3)NC(=O)C(C)(C)O4)n2)cc(OC)c1OC [R406] + O=C(CCCCCCC(=O)Nc1ccccc1)NO [Vorinostat] (partner 1 µM)
Method in brief: (§1)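 Lung cancer cell lines were pin-tool dosed in 1536-well plates on the day after seeding, with either a lone drug or a fixed anchor-drug dose plus five library-drug doses (not always all listed) in √10 steps. Nuclei were counted on 4× images after 5 days. Relative viability is the ratio of treated-well to vehicle-well nuclei counts, with each value a median of duplicate plates.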

R406 + Pemetrexed = compound: COc1cc(Nc2ncc(F)c(Nc3ccc4c(n3)NC(=O)C(C)(C)O4)n2)cc(OC)c1OC [R406] + Nc1nc2[nH]cc(CCc3ccc(C(=O)N[C@@H](CCC(=O)O)C(=O)O)cc3)c2c(=O)[nH]1 [Pemetrexed] (partner 0.2 µM)
Method in brief: as §1

R406 + OSI-027 = compound: COc1cc(Nc2ncc(F)c(Nc3ccc4c(n3)NC(=O)C(C)(C)O4)n2)cc(OC)c1OC [R406] + COc1cccc2cc(-c3nc([C@H]4CC[C@H](C(=O)O)CC4)n4ncnc(N)c34)[nH]c12 [OSI-027] (partner 0.5 µM)
Method in brief: as §1

R406 + Lapatinib = compound: COc1cc(Nc2ncc(F)c(Nc3ccc4c(n3)NC(=O)C(C)(C)O4)n2)cc(OC)c1OC [R406] + CS(=O)(=O)CCNCc1ccc(-c2ccc3ncnc(Nc4ccc(OCc5cccc(F)c5)c(Cl)c4)c3c2)o1 [Lapatinib] (partner 2 µM)
Method in brief: as §1

Which relative viability (R406 + Vorinostat; first compound 0.08 µM) does the source give for UMC-11 here?
The relative viability was 0.361.

And the relative viability (R406 + Vorinostat; first compound 0.253 µM)?
The relative viability was 0.312.

What about the relative viability (R406 + Vorinostat; first compound 0.8 µM) of the same cell line?
The relative viability was 0.39.

And the relative viability (R406 + Vorinostat; first compound 2.53 µM)?
Its relative viability is 0.304.

And the relative viability (R406 + Vorinostat; first compound 8 µM)?
The relative viability was 0.127.

And the relative viability (R406 + Pemetrexed; first compound 0.08 µM)?
Its relative viability is 0.764.

What about the relative viability (R406 + Pemetrexed; first compound 0.253 µM) of the same cell line?
Its relative viability is 0.808.

And the relative viability (R406 + Pemetrexed; first compound 0.8 µM)?
The relative viability was 0.889.

What about the relative viability (R406 + Pemetrexed; first compound 2.53 µM) of the same cell line?
The relative viability was 0.609.

And the relative viability (R406 + Pemetrexed; first compound 8 µM)?
Its relative viability is 0.304.

What about the relative viability (R406 + OSI-027; first compound 0.08 µM) of the same cell line?
Its relative viability is 0.429.

What about the relative viability (R406 + OSI-027; first compound 0.253 µM) of the same cell line?
Its relative viability is 0.517.

What about the relative viability (R406 + OSI-027; first compound 0.8 µM) of the same cell line?
The relative viability was 0.488.

And the relative viability (R406 + OSI-027; first compound 2.53 µM)?
Its relative viability is 0.463.

What about the relative viability (R406 + OSI-027; first compound 8 µM) of the same cell line?
The relative viability was 0.253.

And the relative viability (R406 + Lapatinib; first compound 0.08 µM)?
The relative viability was 0.952.

And the relative viability (R406 + Lapatinib; first compound 0.253 µM)?
Its relative viability is 1.08.

What about the relative viability (R406 + Lapatinib; first compound 0.8 µM) of the same cell line?
Its relative viability is 1.06.

And the relative viability (R406 + Lapatinib; first compound 2.53 µM)?
Its relative viability is 0.241.

What about the relative viability (R406 + Lapatinib; first compound 8 µM) of the same cell line?
The relative viability was 0.378.
